Measured values from ChEMBL document CHEMBL1145960, “Substituted pyrazolopyridopyridazines as orally bioavailable potent and selective PDE5 inhibitors: potential agents for treatment of erectile dysfunction” (J Med Chem, 2003).

What was measured:
[1] = Relative inhibition of PDE1 from bovine heart and PDE5 from human platelets
[2] = Relative inhibition of PDE2 from rat kidney and PDE5 from human platelets
[3] = Relative inhibition of PDE4 from rat kidney and PDE5 from human platelets
[4] = Relative inhibition of PDE6 from bovine retina and PDE5 from human platelets
[5] = Relaxant effect mediated by PDE5 inhibition in rabbit corpus cavernosum; assay type: functional, tissue-based, Oryctolagus cuniculus
Oryctolagus cuniculus = species: Oryctolagus cuniculus; experiment: Increased mean blood pressure in rabbit corpus carvenosum; assay type: functional
[6] = molecular target: Phosphodiesterase 3 and 5 (PDE3 and PDE5) (Homo sapiens) (UniProt O76074+Q14432+Q13370); experiment: Relative inhibition of PDE3 and PDE5 from human platelets
[7] = molecular target: cGMP-specific 3',5'-cyclic phosphodiesterase (Homo sapiens, UniProt O76074); experiment: Inhibition of Phosphodiesterase 5 from human platelets
[8] = Half life of compound was determined in male dogs; assay type: ADME, organism-based, Canis lupus familiaris; details: dog, in vivo
[9] = Bioavailability in dog (male); assay type: ADME, organism-based, Canis lupus familiaris; details: in vivo
[10] = Bioavailability in rat (male); assay type: ADME, organism-based; details: in vivo
[11] = Half life of compound was determined in male rats; assay type: ADME, organism-based; details: rat, in vivo

Row | Structure (SMILES) | Ratio [1] | Ratio [2] | Ratio [3] | Ratio [4] | EC50 [5] [nM] | Ratio [6] | IC50 [7] [nM] | half-life [8] [h] | bioavailability [9] [%] | bioavailability [10] [%] | half-life [11] [h] | ED50 (Oryctolagus cuniculus) [µmol/kg]
1 | CCCc1nn(C)c2c(=O)[nH]c(-c3cc(S(=O)(=O)N4CCN(C)CC4)ccc3OCC)nc12 | – | – | – | – | 19 | – | – | – | – | – | – | 0.11
2 | CCn1ncc2c3c(NCc4ccc(OC)c(Cl)c4)nnc(N4CCC(C(=O)O)CC4)c3cnc21 | > 10000 | > 10000 | 7500 | 30 | – | > 10000 | 0.03 | – | – | – | – | –
3 | CCn1ncc2c3c(NCc4ccc(OC)c(Cl)c4)nnc(N4CCC(O)CC4)c3cnc21 | 5700 | 4000 | 300 | 80 | – | 7500 | – | – | – | – | – | –

More lines, main results first:

Row | Ratio [1] | Ratio [2] | Ratio [3] | Ratio [4] | EC50 [5] [nM] | Ratio [6] | IC50 [7] [nM] | half-life [8] [h] | bioavailability [9] [%] | bioavailability [10] [%] | half-life [11] [h] | Structure (SMILES) | ED50 (Oryctolagus cuniculus) [µmol/kg]
4 | 6400 | 9200 | 600 | 47 | – | – | – | – | – | – | – | CCn1ncc2c(NCc3ccc(OC)c(Cl)c3)c(C(=O)NCc3ccncc3)cnc21 | –
5 | > 10000 | > 10000 | 4000 | 210 | – | > 10000 | 0.1 | – | – | – | – | CCn1ncc2c3c(NCc4ccc(OC)c(Cl)c4)nnc(NCc4ccncc4)c3cnc21 | –
6 | > 10000 | > 10000 | > 10000 | 150 | 13 | – | 0.3 | 2 | 42 | 29 | 1.2 | CCn1ncc2c3c(NCc4ccc(OC)c(Cl)c4)nnc(-n4cnc(C(=O)NC)c4)c3cnc21 | 0.1
